Experimental findings from US8580843B2, “Use of diindolylmethane (DIM) compounds and derivatives as neuroprotective agents” (Colorado State University Research Foundation, priority 2008, dated 2013) are described below.

One test relates to NOS2 protein. The test can be described thus: Immunoblotting of NOS2 protein in astrocytes exposed to MPTP and TNF-α/IFN-γ. In kind it is cell-based, mouse. To be noted: FIG. 7(C), concentration not given. The text has this: Primary Cell Isolation. Cortical astrocytes were isolated from day-1 old C57B1/6 or transgenic mouse pups according to procedures described previously (Aschner and Kimelberg, 1991), and purity confirmed through immunofluorescent staining using antibodies against GFAP and Iba1. Briefly, pups were euthanized by decapitation under isofluorane anesthesia and cortices (astrocytes) or striatum (neurons) rapidly dissected out, and meninges removed. Tissue was subject to digestion with Dispase (1.5 U/ml), and selection of astrocytes was performed by complete media change 24 hrs after plating to remove non-astroglial cell types by serum shock. This method routinely results in cultures that are approximately 99% pure astrocytes, with less than 1% contaminating microglial cells (Supplementary FIG. 1). Astrocyte cultures were maintained at 37° C. and 5% CO2 in minimum essential media supplemented with 10% heat-inactivated fetal bovine serum and a penicillin (0.001 mg/ml), streptomycin (0.002 mg/ml), and neomycin (0.001) antibiotic cocktail. Cell media was changed 24 hrs prior to all treatments. […]
Western Blotting. […] Protein was quantified using the BCA assay (Pierce, Rockford Ill.), and 20 μg of protein were separated by standard SDS-PAGE using a 6% slab gel (BioRad, Hercules Calif.) followed by semi-dry transfer to polyvinylidene fluoride (PVDF) membrane (Pall Corp., Pensacola, Fla.). […]
A general note: In western blotting, separated proteins are transferred to a membrane and probed.

Test [1] deals with proximal NF-κB enhancer element of the Nos2 promoter. In words: Chromatin immunoprecipitation (ChIP) at the proximal NF-κB enhancer element of the Nos2 promoter in astrocytes. It counts as cell-based, mouse. To be noted: 10 μM co-treatment; FIG. 5. Here is the method: Chromatin Immunoprecipitation (ChIP). ChIP procedures were adapted from a previously published report (Weinmann and Farnham, 2002) and optimized for primary astrocytes according to recent studies from our laboratory. Astrocytes were grown to confluence in 10 cm plates (Approx. 8.8×10^6 cells) and were treated for 3 hours with MPTP (10 μM), TNF-α (10 pg/ml) and IFN-γ (1 ng/ml) with or without DIM-C-pPhtBu (10 μM), rosiglitazone (10 μM) or a DMSO vehicle control for 3 hours prior to analysis. DNA was sheared into approximate 500 bp fragments by three ten-second pulses using a Tekmar Sonic Disrupter (Tekmar Co., Cincinnati, Ohio) set at 30% output, followed by collection of 10% input controls and addition of 2 μg precipitating antibody. Immune complexes were allowed to form overnight at 4° C. with gentle agitation, followed by the addition of protein-G magnetic beads (Active Motif, Carlsbad, Calif.) for an additional 90 min. Immunopurified DNA was isolated via phenol/chloroform extraction and subject to PCR using primers designed around the proximal murine Nos2 NF-κB binding region (Xie et al., 1992) (forward: 5′-ATGGCCTTGCATGAGGATACACCA-3′ Chromatin Immunoprecipitation (ChIP). ChIP procedures were adapted from a previously published report (Weinmann and Farnham, 2002) and optimized for primary astrocytes according to recent studies from our laboratory. Astrocytes were grown to confluence in 10 cm plates (Approx. 8.8×10^6 cells) and were treated for 3 hours with MPTP (10 μM), TNF-α (10 pg/ml) and IFN-γ (1 ng/ml) with or without DIM-C-pPhtBu (10 μM), rosiglitazone (10 μM) or a DMSO vehicle control for 3 hours prior to analysis. DNA was sheared into approximate 500 bp fragments by three ten-second pulses using a Tekmar Sonic Disrupter (Tekmar Co., Cincinnati, Ohio) set at 30% output, followed by collection of 10% input controls and addition of 2 μg precipitating antibody. Immune complexes were allowed to form overnight at 4° C. with gentle agitation, followed by the addition of protein-G magnetic beads (Active Motif, Carlsbad, Calif.) for an additional 90 min. Immunopurified DNA was isolated via phenol/chloroform extraction and subject to PCR using primers designed around the proximal murine Nos2 NF-κB binding region (Xie et al., 1992) (forward: 5′-ATGGCCTTGCATGAGGATACACCA-3′(SEQ ID NO:5); reverse: 5′-GAGTCTCAGTCTTCAACTCCCTGT-3′(SEQ ID NO:6)). Amplicons were separated by 2% agarose gel electrophoresis and stained with ethidium bromide.
To determine the mechanism by which DIM-C-pPhtBu modulates NF-κB activity, the ChIP assay was used to identify specific DNA-protein interactions at the proximal NF-κB enhancer element (-86 to -76) of the Nos2 promoter.
Primary cultured astrocytes were treated with MPTP and TNF/IFN in the presence or absence of DIM-C-pPhOCH3 (DIMS, 1 uM) or rosiglitazone (Ro, 10 uM) and cellular lysates subjected to chromatin immunoprecipitation (ChIP) assay for HDAC3 association with the proximal NF-kB binding site in the Nos2 promoter. HDAC3 is a transcriptional co-repressor of Nos2 gene expression.

As to `CN(CCOc1ccc(CC2SC(=O)NC2=O)cc1)c1ccccn1` (stereo not shown) [rosiglitazone, 5-((4-(2-(methyl-2-pyridinylamino)ethoxy)phenyl)methyl)-2,4-thiazolidinedione, reference compound], the “Suppression of NOS2 protein expression” value in the test with NOS2 protein is on record as “suppression of NOS2 protein expression”. In test [1], the “Recruitment of PPAR-γ to the proximal NF-κB response element” value was “recruited PPAR-γ” and the “Stabilization of NCoR2 at the proximal NF-κB response element” value was “prevented degradation of NCoR2”.
As for `CC(C)(C)c1ccc(C(c2c[nH]c3ccccc23)c2c[nH]c3ccccc23)cc1` [DIM-C-pPhtBu, 1,1-bis(3′-indolyl)-1-(p-t-butylphenyl)methane], in test [1], the “Binding of p65 to the Nos2 promoter induced by MPTP and cytokines” value was “blocked”; the “Recruitment of PPAR-γ to the proximal NF-κB response element” value is given as “did not recruit PPAR-γ”; the “Stabilization of NCoR2 at the proximal NF-κB response element” value was “nor did it stabilize NCoR2”.
With `COc1ccc(C(c2c[nH]c3ccccc23)c2c[nH]c3ccccc23)cc1` [DIM-C-pPhOCH3, 1,1-bis(3′-indolyl)-1-(p-methoxyphenyl)methane], the “Suppression of NOS2 protein expression” value in the test with NOS2 protein is “suppression of NOS2 protein expression”.
